Source: patent US9540691B2, “Assays and methods for selecting a treatment regimen for a subject with depression” (THE GENERAL HOSPITAL CORPORATION, priority 2011, dated 2017)
Read-outs that look alike come from different tables or passages of the source.

System: MDD patients carrying the indicated conditions
Conditions: with SSRI
Protocol: Folate levels are classified as either low (<=2.5 ng/ml) or normal; and homocysteine levels as either normal or elevated (>=[…]). The presence or absence of at least one […] allele for the MTHFR gene are entered as a dichotomous variable (present or absent). […] Using folate as an example predicator, the presence or absence of a low serum-folate level along with treatment assignment can be entered in a 2×2, factorial ANOVA, using depression improvement scores (baseline minus endpoint HAM-D-17 scores) as the dependant variable. […] Similar analyses (i.e. separate 2×2 ANOVA's) can be performed substituting the presence of low folate levels for the presence of other predictors as described herein. Similarly, the effect of other predictors can be indicated by the interaction term representing the potential modulating influence of those variables.
Particularly, specific genetic and biomarkers that were assessed include the following: • (a) BMI calculation of at least about 30 kg/m^2; • (b) an expression ratio of SAM/SAH smaller than 2.8 (e.g., 2.71) as measured in a plasma sample; • (c) a level of 4-HNE no less than 3.28 μg/mL (as measured in a plasma sample); • (d) presence of rare variants CT or TT at position 677 of SEQ ID NO: 1 corresponding to a portion of a genomic nucleic acid sequence of methylenetetrahydrofolate reductase (MTHFR) (abbreviated as “MTHFR 677” below); • (e) presence of rare variants AG or GG at position 2756 of SEQ ID NO: 2 corresponding to a portion of genomic nucleic acid sequence of methionine synthase (MTR) (abbreviated as “MTR 2756” below); and • (f) presence of rare variants AG or GG at position 66 of SEQ ID NO: 3 corresponding to a portion of genomic nucleic acid sequence of methionine synthase reductase (MTRR) (abbreviated as “MTRR 66” below).
The efficacy effect is determined by measuring the mean change in the HAMD-17 score and HAMD-28 score by the end of Phase I and Phase II, as compared to the baseline.

[1] = Phase I, interaction of BMI with the treatment
[2] = Phase I, interaction of HNE-his with the treatment
[3] = Phase I, interaction of SAM/SAH with the treatment
[4] = Phase II, 25 =< BMI < 30 kg/m^2 (18, 10)

Structure (SMILES): CN1c2c(nc(N)[nH]c2=O)NC[C@@H]1CNc1ccc(C(=O)N[C@@H](CCC(=O)O)C(=O)O)cc1 [6(S)-5-MTHF, 6(S)-5-methyltetrahydrofolate]
- Effect, change in HAMD-17 score (Phase I, MTRR 66 AA and HNE-His < median (8,5)): −1.167
- Effect, change in HAMD-28 score (Phase I, MTRR 66 AA and HNE-His < median = 3.28 (plasma sample)): −4.167
- Effect, change in HAMD-17 score (Phase I, MTRR 66 AA and SAM/SAH >= median (9,6)): −0.125
- Effect, change in HAMD-28 score (Phase I, MTRR 66 AA and SAM/SAH >= median): 0.500
- Effect, change in HAMD-17 score (Phase I, MTRR 66 AG or GG and HNE-His >= median (24,11)): −5.958
- Effect, change in HAMD-28 score (Phase I, MTRR 66 AG or GG and HNE-His >= median): −6.975
- Effect, change in HAMD-17 score (Phase I, MTRR 66 AG or GG and SAM/SAH < median (24,10)): −5.062
- Effect, change in HAMD-28 score (Phase I, MTRR 66 AG or GG and SAM/SAH < median = 2.71 (plasma sample)): −6.498
- Effect, change in HAMD-17 score (Phase I, SAM/SAH < median and HNE-His >= median (19,7)): −3.670
- Effect, change in HAMD-28 score (Phase I, SAM/SAH < median and HNE-His >= median): −4.227
- Effect, change in HAMD-17 score (Phase I, SAM/SAH >= median and HNE-His < median (18,8)): −0.250
- Effect, change in HAMD-28 score (Phase I, SAM/SAH >= median and HNE-His < median): −0.750
- Effect, change in HAMD-17 score: BMI*treat [1]: −0.567
- Effect, change in HAMD-28 score: BMI*treat [1]: −0.668
- Effect, change in HAMD-17 score: HNE-his*treat [2]: −0.465
- Effect, change in HAMD-28 score: HNE-his*treat [2]: −0.133
- Effect, change in HAMD-17 score: SAM/SAH*treat [3]: 0.495
- Effect, change in HAMD-28 score: SAM/SAH*treat (last line) [3]: 0.972
- Effect, change in HAMD-17 score: baseHAMD-17*treat (Phase I, interaction of base HAMD-17 with the treatment): 0.165
- Effect, change in HAMD-28 score: SAM/SAH*treat (first line under HAMD28) (Phase I, interaction with the treatment): 0.495
- Effect, change in HAMD-17 score [4]: 2.000
- Effect, change in HAMD-28 score [4]: 0.000
- Effect, change in HAMD-17 score (Phase II, BMI < 25 (14, 7)): −1.400
- Effect, change in HAMD-28 score (Phase II, BMI < 25 (14, 7)): −2.300
- Effect, change in HAMD-17 score (Phase II, BMI < 30 kg/m^2 and HNE-His < median (19, 9)): 3.667
- Effect, change in HAMD-28 score (Phase II, BMI < 30 kg/m^2 and HNE-His < median): 1.833
- Effect, change in HAMD-17 score (Phase II, BMI < 30 kg/m^2 and SAM/SAH >= median (16,8)): 1.500
- Effect, change in HAMD-28 score (Phase II, BMI < 30 kg/m^2 and SAM/SAH >= median): 2.500
- Effect, change in HAMD-28 score (Phase II, BMI >= 30 kg/m^2 (40,21)): −3.245
- Effect, change in HAMD-17 score (Phase II, BMI >= 30 kg/m^2 and HNE-His >= median (23, 11)): −4.233
- Effect, change in HAMD-28 score (Phase II, BMI >= 30 kg/m^2 and HNE-His >= median): −4.933
- Effect, change in HAMD-17 score (Phase II, BMI >= 30 kg/m^2 and SAM/SAH < median (21,9)): −9.200
- Effect, change in HAMD-28 score (Phase II, BMI >= 30 kg/m^2 and SAM/SAH < median = 2.71 (plasma sample)): −10.350
- Effect, change in HAMD-17 score (Phase II, MTHFR 677 CC and BMI < 30 kg/m^2 (17,8)): −2.267
- Effect, change in HAMD-28 score (Phase II, MTHFR 677 CC and BMI < 30 kg/m^2): −3.000
- Effect, change in HAMD-17 score (Phase II, MTHFR 677 CC and HNE-His < median (20,11)): −0.857
- Effect, change in HAMD-28 score (Phase II, MTHFR 677 CC and HNE-His < median = 3.28 (plasma sample)): −0.536
- Effect, change in HAMD-17 score (Phase II, MTHFR 677 CC and MTR 2756 AA (29,13)): −0.571
- Effect, change in HAMD-28 score (Phase II, MTHFR 677 CC and MTR 2756 AA): 0.048
- Effect, change in HAMD-17 score (Phase II, MTHFR 677 CT or TT and BMI >= 30 kg/m^2 (13,6)): −7.333
- Effect, change in HAMD-28 score (Phase II, MTHFR 677 CT or TT and BMI >= 30 kg/m^2): −8.667
- Effect, change in HAMD-17 score (Phase II, MTHFR 677 CT or TT and HNE-His >= median (11,6)): −7.500
- Effect, change in HAMD-28 score (Phase II, MTHFR 677 CT or TT and HNE-His >= median): −7.500
- Effect, change in HAMD-17 score (Phase II, MTHFR 677 CT or TT and MTR 2756 AG or GG (8,4)): −10.33
- Effect, change in HAMD-28 score (Phase II, MTHFR 677 CT or TT and MTR 2756 AG or GG): −13.00
- Effect, change in HAMD-17 score (Phase II, MTR 2756 AA (45,21)): −0.427
- Effect, change in HAMD-17 score (Phase II, MTR 2756 AA and BMI < 30 kg/m^2 (17,7)): 1.167
- Effect, change in HAMD-28 score (Phase II, MTR 2756 AA and BMI < 30 kg/m^2): 0.917
- Effect, change in HAMD-17 score (Phase II, MTR 2756 AA and HNE-His < median (26,13)): 0.300
- Effect, change in HAMD-28 score (Phase II, MTR 2756 AA and HNE-His < median): −0.125
- Effect, change in HAMD-17 score (Phase II, MTR 2756 AA and MTRR 66 AA (11,5)): −8.000
- Effect, change in HAMD-17 score (Phase II, MTR 2756 AA and MTRR 66 AA and BMI < 30 kg/m^2 (7,4)): −4.333
- Effect, change in HAMD-28 score (Phase II, MTR 2756 AA and MTRR 66 AA and BMI < 30 kg/m^2): −4.667
- Effect, change in HAMD-17 score (Phase II, MTR 2756 AA and MTRR 66 AA and HNE-His < median (6,4)): −8.667
- Effect, change in HAMD-28 score (Phase II, MTR 2756 AA and MTRR 66 AA and HNE-His < median = 3.28 (plasma sample)): −9.000
- Effect, change in HAMD-17 score (Phase II, MTR 2756 AA and MTRR 66 AA and SAM/SAH >= median (6,3)): −7.000
- Effect, change in HAMD-28 score (Phase II, MTR 2756 AA and MTRR 66 AA and SAM/SAH >= median): −7.500
